Data taken from the NIST ThermoML archive (doi:10.1016/j.tca.2004.11.013).
Numbers after ± are expanded uncertainties.

Tests used:
[1] = for viscosity: 298 K, moving piston; for viscosity / thermal conductivity / mass density: 101.33 kPa, Liquid; for thermal conductivity: hot wire; for mass density: 333.1 K, Vibrating tube method; for Normal melting temperature: Crystal
[2] = molar heat capacity at constant pressure; details: 101.33 kPa, Liquid, Small sample (50 mg) DSC
[3] = Molar enthalpy of transition or fusion; details: Crystal; DSC

Row | SMILES | viscosity [1] | thermal conductivity ([1]; 300 K) | thermal conductivity ([1]; 310 K) | thermal conductivity ([1]; 320 K) | thermal conductivity ([1]; 330 K) | mass density [1] | thermal conductivity ([1]; 340 K) | thermal conductivity ([1]; 350 K) | thermal conductivity ([1]; 360 K) | thermal conductivity ([1]; 370 K) | thermal conductivity ([1]; 380 K) | thermal conductivity ([1]; 390 K) | molar heat capacity at constant pressure ([2]; 273.15 K) | molar heat capacity at constant pressure ([2]; 323.15 K) | molar heat capacity at constant pressure ([2]; 348.15 K) | molar heat capacity at constant pressure ([2]; 373.15 K) | molar heat capacity at constant pressure ([2]; 398.15 K) | molar heat capacity at constant pressure ([2]; 423.15 K) | molar heat capacity at constant pressure ([2]; 448.15 K) | molar heat capacity at constant pressure ([2]; 473.15 K) | further results
1 | CCCCn1cc[n+](C)c1.F[B-](F)(F)F [1-butyl-3-methylimidazolium tetrafluoroborate] | 119.78 ± 4.1 mPa·s | 0.186 ± 0.006 W/m/K | 0.185 ± 0.006 W/m/K | 0.184 ± 0.006 W/m/K | 0.184 ± 0.006 W/m/K | 1174.7 ± 0.7 kg/m3 | 0.183 ± 0.006 W/m/K | 0.183 ± 0.006 W/m/K | 0.182 ± 0.006 W/m/K | 0.181 ± 0.006 W/m/K | 0.181 ± 0.006 W/m/K | 0.18 ± 0.006 W/m/K | 308.75 ± 120 J/K/mol | 341.75 ± 140 J/K/mol | 355.76 ± 140 J/K/mol | 367.74 ± 150 J/K/mol | 378.36 ± 150 J/K/mol | 386.95 ± 150 J/K/mol | 393.96 ± 160 J/K/mol | 399.16 ± 160 J/K/mol | Glass transition temperature ([1]; Glass, DTA): -87.38 ± 2.6 °C; molar heat capacity at constant pressure ([2]; 223.15 K): 268.74 ± 110 J/K/mol; molar heat capacity at constant pressure ([2]; 248.15 K): 289.54 ± 120 J/K/mol; molar heat capacity at constant pressure ([2]; 298.15 K): 326.15 ± 130 J/K/mol; molar heat capacity at constant pressure ([2]; 498.15 K): 402.77 ± 160 J/K/mol; molar heat capacity at constant pressure ([2]; 523.15 K): 404.35 ± 160 J/K/mol; molar heat capacity at constant pressure ([2]; 548.15 K): 404.35 ± 160 J/K/mol; molar heat capacity at constant pressure ([2]; 573.15 K): 402.77 ± 160 J/K/mol
2 | CCC[n+]1ccn(C)c1C.O=S(=O)([N-]S(=O)(=O)C(F)(F)F)C(F)(F)F | 90.05 ± 2.7 mPa·s | 0.13 ± 0.005 W/m/K | 0.13 ± 0.005 W/m/K | 0.129 ± 0.005 W/m/K | 0.129 ± 0.005 W/m/K | 1420.5 ± 0.8 kg/m3 | 0.128 ± 0.005 W/m/K | 0.128 ± 0.005 W/m/K | 0.127 ± 0.005 W/m/K | 0.127 ± 0.005 W/m/K | 0.126 ± 0.005 W/m/K | 0.126 ± 0.005 W/m/K |  | 473.46 ± 190 J/K/mol | 487.72 ± 200 J/K/mol | 501.98 ± 200 J/K/mol | 515.4 ± 210 J/K/mol | 528.4 ± 210 J/K/mol | 540.98 ± 220 J/K/mol | 553.14 ± 220 J/K/mol | Molar enthalpy of transition or fusion [3]: 4.71 ± 1.91 kcal/mol; Normal melting temperature ([1]; DTA): 11.29 ± 2.6 °C; molar heat capacity at constant pressure ([2]; 498.15 K): 564.47 ± 230 J/K/mol; molar heat capacity at constant pressure ([2]; 523.15 K): 575.79 ± 230 J/K/mol; molar heat capacity at constant pressure ([2]; 548.15 K): 586.69 ± 230 J/K/mol; molar heat capacity at constant pressure ([2]; 573.15 K): 597.18 ± 240 J/K/mol; molar heat capacity at constant pressure ([2]; 598.15 K): 607.24 ± 240 J/K/mol; molar heat capacity at constant pressure ([2]; 623.15 K): 616.89 ± 250 J/K/mol; molar heat capacity at constant pressure ([2]; 663.15 K): 631.15 ± 250 J/K/mol
3 | CCn1cc[n+](C)c1.F[B-](F)(F)F [1-ethyl-3-methylimidazolium tetrafluoroborate] | 36.07 ± 0.75 mPa·s | 0.199 ± 0.006 W/m/K | 0.197 ± 0.006 W/m/K | 0.196 ± 0.006 W/m/K | 0.195 ± 0.006 W/m/K | 1252.6 ± 0.8 kg/m3 | 0.194 ± 0.006 W/m/K | 0.193 ± 0.006 W/m/K | 0.191 ± 0.006 W/m/K | 0.19 ± 0.006 W/m/K | 0.189 ± 0.006 W/m/K | 0.188 ± 0.006 W/m/K | 244.49 ± 98 J/K/mol |  |  | 257.95 ± 100 J/K/mol |  |  |  |  | Molar enthalpy of transition or fusion [3]: 2.28 ± 0.908 kcal/mol; Normal melting temperature ([1]; DTA): 14.42 ± 1.1 °C; molar heat capacity at constant pressure ([2]; 293.15 K): 250.04 ± 100 J/K/mol; molar heat capacity at constant pressure ([2]; 313.15 K): 254 ± 100 J/K/mol; molar heat capacity at constant pressure ([2]; 333.15 K): 256.77 ± 100 J/K/mol; molar heat capacity at constant pressure ([2]; 353.15 K): 258.15 ± 100 J/K/mol; molar heat capacity at constant pressure ([2]; 393.15 K): 256.57 ± 100 J/K/mol; molar heat capacity at constant pressure ([2]; 403.15 K): 255.18 ± 100 J/K/mol
